The text below walks through data of patent publication US10501438B2, “Aryl-substituted dihydroquinolinones, their preparation and their use as pharmaceuticals” (NEOMED Institute, priority 2015, dated 2019).

The first assay has as its system human C-Myc transcription in MV-4-11 cells. Description: Transcription of human C-Myc in human leukemic MV-4-11 cells (QuantiGene 2.0). Type of assay: cell-based. The conditions noted are these: Homo sapiens, MV4-11, 4 h, inhibition of C-Myc mRNA, 4 hours treatment. The protocol:
b) Transcription of Human C-Myc in Human Leukemic MV-4-11 Cells:
The effect of compounds on transcription of human C-Myc gene is monitored in human B-myelomonocytic leukemia cell line MV-4-11 (from American Type Culture Collection (ATCC), Manassas, Va., USA) using QuantiGene 2.0 assay kit (Affymetrix, Santa Clara, Calif., USA).
Typically, 8,000 MV-4-11 cells are plated in sterile 96-well plates (Costar #3598 from Fisher Scientific Canada, Ottawa, Ontario, Canada) in Iscove's medium supplemented with 10% fetal bovine serum, glutamine (2 mM), and penicillin (100 I.U.) and streptomycin (100 μg/mL) (all from Wisent Inc., St. Bruno, Quebec, Canada). Compounds are dissolved in DMSO at 30 mM. A series of 1:3 dilutions are first made in DMSO, and further 1:100 dilutions are made in serum-containing cell culture media. The final concentration of DMSO is 0.1% in cell culture media. After cells are treated with various concentrations of test compound for 4 hours, cells are lysed using Quantigene 2.0 sample processing kit (#QS0100). C-Myc mRNA is detected using a QuantiGene 2.0 assay kit (#QS0009) with gene-specific probe to human C-Myc (#SA-50182) following the manufacturer's recommendations. Luminescene signals are read on Flexstation II microplate reader (Molecular Devices, Sunnyvale, Calif., USA).
The term IC50 denotes the concentration that inhibits the measured activity by half. Read a low IC50 as greater potency in that assay. Turning to `Cc1cc(-c2cc3c(c(OCc4cccnc4)c2)NC(=O)CC3)cn(C)c1=O` [Compound 25, 6-(1,5-dimethyl-6-oxo-1,6-dihydropyridin-3-yl)-8-(pyridin-3-ylmethoxy)-3,4-dihydroquinolin-2(1H)-one], the IC50 was determined as 150 nM.
Consider `Cc1cc(-c2cc3c(c(CN(C)C4CCCC4)c2)NC(=O)CC3)cn(C)c1=O` [Compound 97, 8-((cyclopentyl(methyl)amino)methyl)-6-(1,5-dimethyl-6-oxo-1,6-dihydropyridin-3-yl)-3,4-dihydroquinolin-2(1H)-one], for which the IC50 stood at 790 nM.
`Cc1cc(-c2cc3c(c(Oc4ccccc4)c2)NC(=O)CC3)cn(C)c1=O` [Compound 15, 6-(1,5-dimethyl-6-oxo-1,6-dihydropyridin-3-yl)-8-phenoxy-3,4-dihydroquinolin-2(1H)-one] yielded an IC50 of 2620 nM.
As to `Cn1cc(-c2cc3c(c(OCc4cccnc4)c2)NC(=O)CC3)cc(Cl)c1=O` [Compound 80, 6-(5-chloro-1-methyl-6-oxo-1,6-dihydropyridin-3-yl)-8-(pyridin-3-yl-methoxy)-3,4-dihydroquinolin-2(1H)-one], the half-maximal inhibitory concentration (IC50) was found to be 520 nM.
`Cc1cc(-c2cc3c(c(OCC4CCCCO4)c2)NC(=O)CC3)cn(C)c1=O` (stereo not shown) [Compound 55a, 6-(1,5-dimethyl-6-oxo-1,6-dihydropyridin-3-yl)-8-((tetrahydro-2H-pyran-2-yl)methoxy)-3,4-dihydroquinolin-2(1H)-one] registered an IC50 of 580 nM.
In the case of `Cc1cc(-c2cc3c(cc2Cc2cccnc2)CCC(=O)N3)cn(C)c1=O` [Compound 101, 7-(1,5-dimethyl-6-oxo-1,6-dihydropyridin-3-yl)-6-(pyridin-3-ylmethyl)-3,4-dihydroquinolin-2(1H)-one], the IC50 is 2680 nM.
`Cc1cc(-c2cc3c(c(OCc4ccccn4)c2)NC(=O)CC3)cn(C)c1=O` [Compound 26, 6-(1,5-dimethyl-6-oxo-1,6-dihydropyridin-3-yl)-8-(pyridin-2-ylmethoxy)-3,4-dihydroquinolin-2(1H)-one]: it took 280 nM to reach half-maximal inhibition (IC50).
Consider `CC(=O)N(Cc1cc(-c2cc(C)c(=O)n(C)c2)cc2c1NC(=O)CC2)C1CCCC1` [Compound 98, N-cyclopentyl-N-((6-(1,5-dimethyl-6-oxo-1,6-dihydropyridin-3-yl)-2-oxo-1,2,3,4-tetrahydroquinolin-8-yl)methyl)acetamide], for which half-maximal inhibition (IC50) was put at 90 nM.
In the case of `Cc1cc(-c2ccc3c(c2CCc2ccccc2)CCC(=O)N3)cn(C)c1=O` [Compound 96, 6-(1,5-dimethyl-6-oxo-1,6-dihydropyridin-3-yl)-5-phenethyl-3,4-dihydroquinolin-2(1H)-one], the IC50 amounted to 780 nM.
Turning to `Cc1cc(-c2cc(COC3CCCC3)c3c(c2)NC(=O)CC3)cn(C)c1=O` [Compound 100, 5-((cyclopentyloxy)methyl)-7-(1,5-dimethyl-6-oxo-1,6-dihydropyridin-3-yl)-3,4-dihydroquinolin-2(1H)-one], the half-inhibitory concentration (IC50) is 610 nM.
Same read-out and setting: the result for `Cc1cc(-c2ccc3c(c2Cc2ccc(C#N)cc2)CCC(=O)N3)cn(C)c1=O` [Compound 87, 4-((6-(1,5-dimethyl-6-oxo-1,6-dihydropyridin-3-yl)-2-oxo-1,2,3,4-tetrahydroquinolin-5-yl)methyl)benzonitrile] reads 100 nM; that for `Cc1cc(-c2cc3c(c(O[C@@H](C)c4ccccn4)c2)NC(=O)CC3)cn(C)c1=O` [Compound 74a, (S)-6-(1,5-dimethyl-6-oxo-1,6-dihydropyridin-3-yl)-8-(1-(pyridin-2-yl)ethoxy)-3,4-dihydroquinolin-2(1H)-one], 120 nM.
Regarding `Cc1cc(-c2ccc3c(c2Cc2cccc(F)c2)CCC(=O)N3)cn(C)c1=O` [Compound 86, 6-(1,5-dimethyl-6-oxo-1,6-dihydropyridin-3-yl)-5-(3-fluorobenzyl)-3,4-dihydroquinolin-2(1H)-one], half-maximal inhibition (IC50) required 370 nM.
The compound `Cc1cc(-c2cc3c(c(CNC4CCCCC4)c2)NC(=O)CC3)cn(C)c1=O` [Compound 24, 8-[(cyclohexylamino)methyl]-6-(1,5-dimethyl-6-oxo-3-pyridyl)-3,4-dihydro-1H-quinolin-2-one] returned an IC50 of 830 nM.
On to `Cc1cc(-c2ccc3c(c2Cc2ccc(F)cc2)CCC(=O)N3)cn(C)c1=O` [Compound 91, 6-(1,5-dimethyl-6-oxo-1,6-dihydropyridin-3-yl)-5-(4-fluorobenzyl)-3,4-dihydroquinolin-2(1H)-one], for which the midpoint of inhibition, the IC50, lay at 100 nM.
Compound `Cc1cc(-c2cc3c(c(OCc4ccncc4)c2)NC(=O)CC3)cn(C)c1=O` [Compound 73, 6-(1,5-dimethyl-6-oxo-1,6-dihydropyridin-3-yl)-8-(pyridin-4-ylmethoxy)-3,4-dihydroquinolin-2(1H)-one] showed an IC50 of 500 nM.
Still for that read-out and setting: the figure for `Cc1cc(-c2cc3c(cc2COC2CCCC2)CCC(=O)N3)cn(C)c1=O` [Compound 34, 6-((cyclopentyloxy)methyl)-7-(1,5-dimethyl-6-oxo-1,6-dihydropyridin-3-yl)-3,4-dihydroquinolin-2(1H)-one] is 2820 nM; for `Cc1cc(-c2cc3c(c(O[C@H](C)c4ccccn4)c2)NC(=O)CC3)cn(C)c1=O` [Compound 74b, (R)-6-(1,5-dimethyl-6-oxo-1,6-dihydropyridin-3-yl)-8-(1-(pyridin-2-yl)ethoxy)-3,4-dihydroquinolin-2(1H)-one] it is 410 nM; for `Cc1cc(-c2cc3c(c(COC4CCCC4)c2)NC(=O)CC3)cn(C)c1=O` [Compound 21, 8-(cyclopentoxymethyl)-6-(1,5-dimethyl-6-oxo-3-pyridyl)-3,4-dihydro-1H-quinolin-2-one] it is 280 nM.
On to `Cc1cc(-c2cc3c(c(OCC4CCC4)c2)NC(=O)CC3)cn(C)c1=O` [Compound 20, 8-(cyclobutylmethoxy)-6-(1,5-dimethyl-6-oxo-1,6-dihydropyridin-3-yl)-3,4-dihydroquinolin-2(1H)-one], for which 790 nM corresponded to half-maximal inhibition (IC50).
Regarding `Cc1cc(-c2cc3c(c(COC4CCOCC4)c2)NC(=O)CC3)cn(C)c1=O` [Compound 47, 6-(1,5-dimethyl-6-oxo-1,6-dihydropyridin-3-yl)-8-(((tetrahydro-2H-pyran-4-yl)oxy)methyl)-3,4-dihydroquinolin-2(1H)-one], the IC50 was 940 nM.

The assay is the same for the next values; noted with them: inhibition of C-Myc mRNA, 4 hours treatment.
For the compound `Cc1cc(-c2cc3c(c(OC(C)c4cccnc4)c2)NC(=O)CC3)cn(C)c1=O` (single isomer, unassigned) [Compound 92b, 6-(1,5-dimethyl-6-oxo-1,6-dihydropyridin-3-yl)-8-(1-(pyridin-3-yl)ethoxy)-3,4-dihydroquinolin-2(1H)-one], the IC50 was 510 nM.
On the same count and under the same terms, the figure for `Cc1cc(-c2cc3c(c(OCC4CCCCO4)c2)NC(=O)CC3)cn(C)c1=O` (stereo not shown) [Compound 55b, 6-(1,5-dimethyl-6-oxo-1,6-dihydropyridin-3-yl)-8-((tetrahydro-2H-pyran-2-yl)methoxy)-3,4-dihydroquinolin-2(1H)-one] is 800 nM; for `Cc1cc(-c2cc3c(c(COC4CCCOC4)c2)NC(=O)CC3)cn(C)c1=O` (stereo not shown) [Compound 48b, 6-(1,5-dimethyl-6-oxo-1,6-dihydropyridin-3-yl)-8-(((tetrahydro-2H-pyran-3-yl)oxy)methyl)-3,4-dihydroquinolin-2(1H)-one] it is 2740 nM.
The compound `Cc1cc(-c2cc3c(c(OC(C)c4cccnc4)c2)NC(=O)CC3)cn(C)c1=O` (single isomer, unassigned) [Compound 92a, 6-(1,5-dimethyl-6-oxo-1,6-dihydropyridin-3-yl)-8-(1-(pyridin-3-yl)ethoxy)-3,4-dihydroquinolin-2(1H)-one] came in with an IC50 of 90 nM.
